For 18 molecules, EC50, IC50 and inhibition results are on record in patent US9018214B2, “Bicyclic heterocycle compounds and their uses in therapy” (Astex Therapeutics Limited, priority 2011, dated 2015).

Each structure is given as a SMILES string. Where a name gives a salt, the structure may show the parent alone. Read-outs that look alike come from different tables or passages of the source.

Assay [1] deals with EVSA-T (human breast carcinoma). The experiment in a line: Anti-proliferative activity, Alamar Blue assay, EVSA-T. Type of assay: cell-based. Conditions: Homo sapiens, EVSA-T, read-out: EVSA-T prolif (EC50). A general note: Resazurin is reduced to fluorescent resorufin, in cell work by metabolically active cells.
The target in assay [2] is BIR3 domain of human cIAP-1 (residues 267-363) (Homo sapiens (Human), UniProt Q13490). The assay can be described thus: cIAP-1 in vitro competitive displacement binding assay (fluorescence polarization; Probe A AVPIK(5&6FAM)-amide or Probe B AbuRPFK(5&6FAM)-amide). (In fluorescence polarisation assays a small probe gives low polarisation when free and higher when bound to something large.)

Assay [3] has as its target BIR3 domain of human XIAP (residues 252-350) (Homo sapiens (Human), UniProt P98170). The assay can be described thus: XIAP in vitro competitive displacement binding assay (fluorescence polarization). As to conditions: for IC50: read-out: IC50 or PI Xiap: IC50; for inhibition at 0.04 µM: 1 h, read-out: IC50 or PI Xiap: PI.
The mark [4] stands for this setting: Probe B AbuRPFK(5&6FAM)-amide, read-out: IC50 or PI cIAP1: IC50.
The mark [5] stands for this setting: read-out: IC50 or PI cIAP1: IC50.
[6] abbreviates: 3 h, read-out: IC50 or PI cIAP1: PI.
Where [7] appears, read: 3 h, Probe B, @ 0.012 μM, read-out: IC50 or PI cIAP1: PI.

The term EC50 denotes the concentration giving half of the maximal effect. A word on the IC50: it is the point on the concentration scale where inhibition reaches its midpoint. With `COC[C@H]1CN[C@H](C)CN1CC(=O)N1CC(C)(C)c2cnc(Cc3cccc(Cl)c3)cc21` [Example 86, 1-{6-[(3-Chlorophenyl)methyl]-3,3-dimethyl-1H,2H,3H-pyrrolo[3,2-c]pyridin-1-yl}-2-[(2R,5R)-2-(methoxymethyl)-5-methylpiperazin-1-yl]ethan-1-one, hydrochloride salt], the EC50 in assay [1] (72 hours, Alamar Blue) came to 310 nM. Further, the half-maximal inhibitory concentration (IC50) in assay [2] was less than 1000 nM; in assay [2] (setting [4]) it was 12 nM; in assay [3], 290 nM.

For the molecule `C[C@@H]1CN(CC(=O)N2CC(C)(C)c3ncc(C(F)(F)CC4CC4)cc32)[C@@H](CN2CCOCC2)CN1` [Example 231, 1-[6-(2-Cyclopropyl-1,1-difluoroethyl)-3,3-dimethyl-1H,2H,3H-pyrrolo[3,2-b]pyridin-1-yl]-2-[(2R,5R)-5-methyl-2-(morpholin-4-ylmethyl)piperazin-1-yl]ethan-1-one dihydrochloride], the EC50 in assay [1] (72 h) stood at 67 nM. Besides, the IC50 was less than 1000 nM in assay [2], 9.5 nM in assay [2] (setting [5]) and 65 nM in assay [3].

`COC[C@H]1CN[C@H](C)CN1CC(=O)N1CC(C)(C)c2cnc(Cc3ccccc3F)cc21` [Example 77, 1-{6-[(2-Fluorophenyl)methyl]-3,3-dimethyl-1H,2H,3H-pyrrolo[3,2-c]pyridin-1-yl}-2-[(2R,5R)-2-(methoxy-methyl)-5-methyl-piperazin-1-yl]ethan-1-one]: in assay [1] (72 hours, Alamar Blue), the EC50 came out at 160 nM. Further, the IC50 in assay [2] (setting [4]) was 9 nM; in assay [3] it was 170 nM.

Turning to `C[C@@H]1CN(CC(=O)N2CC(C)(C)c3cnc(Cc4ccccc4)cc32)[C@@H](CN2CCCC2=O)CN1` [Example 172, 1-{[(2R,5R)-1-(2-{6-Benzyl-3,3-dimethyl-1H,2H,3H-pyrrolo[3,2-c]pyridin-1-yl}-2-oxoethyl)-5-methylpiperazin-2-yl]methyl}pyrrolidin-2-one dihydrochloride], the concentration for a half-maximal effect (EC50) in assay [1] (72 hours, Alamar Blue) came to 56 nM. Further, in assay [2] (setting [6]), the inhibition at […] amounted to 78%. Further, in assay [3], the inhibition at 0.04 µM worked out at 58%.

Turning to `C[C@@H]1CN(CC(=O)N2CC(C)(C)c3ncc(Cc4ccc(F)cc4F)cc32)[C@@H](CN2CCOC2=O)CN1` [Example 200, 3-{[(2R,5R)-1-(2-{6-[(2,4-Difluorophenyl)methyl]-3,3-dimethyl-1H,2H,3H-pyrrolo[3,2-b]pyridin-1-yl}-2-oxoethyl)-5-methylpiperazin-2-yl]methyl}-1,3-oxazolidin-2-one dihydrochloride], the concentration giving a half-maximal response (EC50) in assay [1] (72 h) was 8.8 nM. Also, in assay [2] (setting [6]), the inhibition at […] is 96%. Further, in assay [3], the IC50 stood at 74 nM.

For the molecule `C[C@@H]1CN(CC(=O)N2CC(C)(C)c3cnc(Oc4ccccc4Cl)cc32)[C@@H](C(=O)N2CCOCC2)CN1` [Example 165, 1-[6-(2-Chlorophenoxy)-3,3-dimethyl-1H,2H,3H-pyrrolo[3,2-c]pyridin-1-yl]-2-[(2R,5R)-5-methyl-2-[(morpholin-4-yl)carbonyl]piperazin-1-yl]ethan-1-one dihydrochloride], in assay [1] (72 h), the EC50 was 650 nM. The IC50 was less than 1000 nM in assay [2] and 14 nM in assay [2] (setting [5]). In assay [3], the inhibition at 0.04 µM was found to be 65%.

`COC[C@H]1CN[C@H](C)CN1CC(=O)N1CC(C)(C)c2cnc(-c3ccc(C)s3)cc21` [Example 148, 1-[3,3-Dimethyl-6-(5-methylthiophen-2-yl)-1H,2H,3H-pyrrolo[3,2-c]pyridin-1-yl]-2-[(2R,5R)-2-(methoxymethyl)-5-methylpiperazin-1-yl]ethan-1-one dihydrochloride]: the concentration for a half-maximal effect (EC50) in assay [1] (72 h) was found to be 2000 nM. The IC50 in assay [2] (setting [5]) is 45 nM; in assay [3], 360 nM.

As for `C[C@@H]1CN(CC(=O)N2CC(C)(C)c3c[n+]([O-])c(Cc4ccc(F)cc4F)cc32)[C@@H](C(=O)N(C)C)CN1` [Example 167, (2R,5R)-1-(2-{6-[(2,4-Difluorophenyl)methyl]-3,3-dimethyl-5-oxo-1H,2H,3H-1,5λ^5-pyrrolo[3,2-c][1λ^5]pyridin-1-yl}-2-oxoethyl)-N,N,5-trimethylpiperazine-2-carboxamide hydrochloride], the EC50 in assay [1] (72 hours, Alamar Blue) came to 260 nM. In addition, in assay [2] (setting [7]), the inhibition at […] was 84%. The IC50 in assay [3] amounted to 100 nM.

For `CCCC(F)(F)c1cnc2c(c1)N(C(=O)CN1C[C@@H](C)NC[C@@H]1CN1CCOC[C@H]1CC)CC2(C)C` [Example 248, 1-[6-(1,1-Difluorobutyl)-3,3-dimethyl-1H,2H,3H-pyrrolo[3,2-b]pyridin-1-yl]-2-[(2R,5R)-2-{[(3R)-3-ethylmorpholin-4-yl]methyl]-5-methylpiperazin-1-yl]ethan-1-one dihydrochloride], the EC50 in assay [1] (72 hours, Alamar Blue) was found to be 10 nM. Besides, the inhibition at […] in assay [2] (setting [6]) came out at 91%. The inhibition at 0.04 µM in assay [3] turned out to be 69%.

On to `CC(C)C(F)(F)c1cc2c(cn1)C(C)(C)CN2C(=O)CN1C[C@@H](C)NC[C@@H]1CN1CCCC1=O` [Example 211, 1-{[(2R,5R)-1-{2-[6-(1,1-Difluoro-2-methylpropyl)-3,3-dimethyl-1H,2H,3H-pyrrolo[3,2-c]pyridin-1-yl]-2-oxoethyl}-5-methylpiperazin-2-yl]methyl}pyrrolidin-2-one hydrochloride], for which the EC50 in assay [1] (72 hours, Alamar Blue) was found to be 630 nM. For the same molecule, the IC50 is less than 1000 nM in assay [2], 22 nM in assay [2] (setting [4]) and 46 nM in assay [3].

On to `CC(C)CC(F)(F)c1cc2c(cn1)C(C)(C)CN2C(=O)CN1C[C@@H](C)NC[C@@H]1CN1CCOCC1` [Example 229, 1-[6-(1,1-Difluoro-3-methylbutyl)-3,3-dimethyl-1H,2H,3H-pyrrolo[3,2-c]pyridin-1-yl]-2-[(2R,5R)-5-methyl-2-(morpholin-4-ylmethyl)piperazin-1-yl]ethan-1-one hydrochloride], for which, in assay [1] (72 hours, Alamar Blue), the EC50 worked out at 38 nM. The inhibition at […] in assay [2] (setting [7]) came out at 73%. The inhibition at 0.04 µM in assay [3] (@ 0.04 μM) worked out at 53%.

In the case of `CCCC(F)(F)c1cnc2c(c1)N(C(=O)CN1C[C@@H](C)NC[C@@H]1CN1CCOC[C@H]1C)CC2(C)C` [Example 260, 1-[6-(1,1-Difluoro-butyl)-3,3-dimethyl-2,3-dihydro-pyrrolo[3,2-b]pyridin-1-yl]-2-[(2R,5R)-5-methyl-2-((R)-3-methyl-morpholin-4-ylmethyl)-piperazin-1-yl]-ethanone dihydrochloride], the concentration giving a half-maximal response (EC50) in assay [1] (72 hours, Alamar Blue) stood at 4.4 nM. Besides, the inhibition at […] in assay [2] (setting [6]) amounted to 90%. Moreover, the inhibition at 0.04 µM in assay [3] was 73%.

For the molecule `C[C@@H]1CN(CC(=O)N2CC(C)(C)c3cnc(Cc4ccc(F)cc4F)cc32)[C@@H](C(=O)N(C)C)CN1` [Example 164, (2R,5R)-1-(2-{6-[(2,4-Difluorophenyl)methyl]-3,3-dimethyl-1H,2H,3H-pyrrolo[3,2-c]pyridin-1-yl}-2-oxoethyl)-N,N,5-trimethylpiperazine-2-carboxamide dihydrochloride], the 50% effective concentration (EC50) in assay [1] (72 h) came out at 45 nM. Besides, in assay [2] (setting [6]), the inhibition at […] came out at 86%. Moreover, the IC50 in assay [3] stood at 120 nM.

`CC[C@@H]1COCCN1C[C@H]1CN[C@H](C)CN1CC(=O)N1CC(C)(C)c2ncc(C(F)(F)CC)cc21` [Example 255, 1-[6-(1,1-Difluoropropyl)-3,3-dimethyl-1H,2H,3H-pyrrolo[3,2-b]pyridin-1-yl]-2-[(2R,5R)-2-{[(3R)-3-ethylmorpholin-4-yl]methyl}-5-methylpiperazin-1-yl]ethan-1-one dihydrochloride]: the 50% effective concentration (EC50) in assay [1] (72 h) is 32 nM. The 50% inhibitory concentration (IC50) was less than 1000 nM in assay [2] and 14 nM in assay [2] (setting [5]). Moreover, the inhibition at 0.04 µM in assay [3] came out at 49%.

On to `COC[C@H]1CN[C@H](C)CN1CC(=O)N1CC(C)(C)c2cnc(Cc3ccc(F)cc3)cc21` [Example 88, 1-{6-[(4-Fluoro-phenyl)methyl]-3,3-dimethyl-1H,2H,3H-pyrrolo[3,2-c]pyridin-1-yl}-2-[(2R,5R)-2-(methoxy-methyl)-5-methyl-piperazin-1-yl]ethan-1-one, hydrochloride salt], for which the EC50 in assay [1] (72 hours, Alamar Blue) was 40 nM. The inhibition at 0.01 µM in assay [2] (3 h, Probe B, @ 0.01 μM, read-out: IC50 or PI cIAP1: PI) was 84%. Further, in assay [3], the IC50 was 170 nM.

As for `C[C@@H]1CN(CC(=O)N2CC(C)(C)c3cnc(Cc4ccc(F)cc4F)cc32)[C@@H](CN2CCOC2=O)CN1` [Example 209, 3-{[(2R,5R)-1-(2-{6-[(2,4-Difluorophenyl)methyl]-3,3-dimethyl-1H,2H,3H-pyrrolo[3,2-c]pyridin-1-yl}-2-oxoethyl)-5-methylpiperazin-2-yl]methyl}-1,3-oxazolidin-2-one dihydrochloride], the EC50 in assay [1] (72 h) came out at 19 nM. In addition, in assay [2] (setting [6]), the inhibition at […] is 90%. The IC50 in assay [3] worked out at 47 nM.

In the case of `C[C@@H]1CN(CC(=O)N2CC(C)(C)c3cnc(Cc4ccc(F)cc4F)cc32)[C@@H](Cn2cccnc2=O)CN1` [Example 185, 1-{[(2R,5R)-1-(2-{6-[(2,4-Difluorophenyl)methyl]-3,3-dimethyl-1H,2H,3H-pyrrolo[3,2-c]pyridin-1-yl}-2-oxoethyl)-5-methylpiperazin-2-yl]methyl}-1,2-dihydropyrimidin-2-one dihydrochloride], the EC50 in assay [1] (72 h) amounted to 10 nM. The inhibition at […] in assay [2] (setting [6]) worked out at 94%. Also, the IC50 in assay [3] stood at 77 nM.

With `C[C@@H]1CN(CC(=O)N2CC(C)(C)c3cnc(C(F)(F)C4CC4)cc32)[C@@H](CN2CCCC2=O)CN1` [Example 212, 1-{[(2R,5R)-1-{2-[6-(Cyclopropyldifluoromethyl)-3,3-dimethyl-1H,2H,3H-pyrrolo[3,2-c]pyridin-1-yl]-2-oxoethyl}-5-methylpiperazin-2-yl]methyl}pyrrolidin-2-one hydrochloride], the EC50 in assay [1] (72 hours, Alamar Blue) was determined as 270 nM. Also, the IC50 in assay [2] is less than 1000 nM; in assay [2] (setting [4]), 14 nM; in assay [3], 45 nM.
